Read-outs that look alike come from different tables or passages of the source.
Tests used:
[1] = test system: CQ-resistant P. falciparum; conditions: cited from earlier work
[2] = Urinary excretion and renal clearance (24-hour urine collections, days 1-3)
[3] = Blood pharmacokinetics after oral dosing (fluorescence HPLC, noncompartmental WinNonlin model); format: in vivo, human; conditions: for AUC: read-out: AUCτ of metabolite; for MRT: read-out: MRT of metabolite (converted); for half-life: read-out: t1/2 of metabolite (converted)
Description: Study drugs were administered in the GCRC on an empty stomach between 8 and 9 AM the morning after admission (after fasting for ≥ 10 h).

[4] = human, whole blood, oral, 1750 mg, after 1,750 mg AQ-13 over 3 d, median (range)
[5] = human, whole blood, oral, after 700 mg AQ-13, median (range)
[6] = human, whole blood, after 600 mg oral dose of parent drug, median (range)

mono-dealkylated metabolite/parent ratio in urine ([2]; days 1-3, AQ-72/AQ-13 and MDCQ/CQ) [%] | time after drug administration at which metabolite/parent ratio reached 1.0 ([3]; 600 mg AQ-13, AQ-72/AQ-13 ratio) [days] | metabolite/parent ratio in blood at the Cmax of the parent drug ([3]; 600 mg dose, AQ-72/AQ-13 (mean) or MDCQ/CQ) | time to appearance of metabolite in the blood ([3]; after oral 600 or 700 mg AQ-13 or 600 mg CQ) [h] | AUC ([3]; human, whole blood, oral, 700 mg, after 700 mg AQ-13, median (range)) [µM·h] | AUC [3, 4] [µM·h] | MRT [3, 4] [days] | half-life [3, 4] [days] | Tmax ([3]; human, whole blood, oral, after 600 mg AQ-13, median, read-out: Tmax of metabolite) [days] | MRT [3, 5] [days] | half-life [3, 5] [days] | AUC ([3]; human, whole blood, po, 600 mg, after 600 mg oral dose of parent drug (CQ or AQ-13), whole blood, median (range)) [µM·h] | MRT [3, 6] [days] | half-life [3, 6] [days] | Cmax ([3]; human, whole blood, after 600 mg oral dose of parent drug, median, read-out: Cmax of metabolite) [nM] | second (di-dealkylated) metabolite/parent ratio in urine ([2]; days 1-3, AQ-73/AQ-13 and BDCQ/CQ) [%] | detection of di-dealkylated metabolite in urine ([2]; urine collections days 1-3 after dosing) | detection of di-dealkylated metabolite in the blood ([3]; after oral AQ-13 or CQ) | Compound | activity of major metabolite against CQ-resistant parasites [1]
23.6 | 3 to 6 | 0.37 | ≤ 1 | 262 | 440 | 17.4 | 10.5 | 0.625 | 18.6 | 12.3 | 211 | 16.6 | 11.1 | 590 | – | – | – | CCNCCCNc1ccnc2cc(Cl)ccc12 [AQ-72] | not active against CQ-resistant parasites
– | – | – | – | – | – | – | – | – | – | – | – | – | – | – | 5.2 | identified in urine collections | not detected in the blood | NCCCNc1ccnc2cc(Cl)ccc12 [AQ-73] | –

Source: publication PMC1764434 (PLoS Clinical Trials, 2007)
